Patent US9572814B2, “Methods of improving the pharmacokinetics of doxepin” (Pernix Sleep, Inc., priority 2006, dated 2017)
Where two headings read alike, the source gives them in different places.

Experiments:
clinical = details: both, human, plasma, po, 6 milligram
[1] = calculated from geometric LS means, single 6 milligram dose
[2] = plasma, single 6 milligram doxepin tablet, fasted (N = 15)
[3] = plasma, single 6 milligram doxepin tablet, fed (N = 16)
[4] = ratio of geometric LS means, 6 milligram doxepin tablet
[5] = single 6 milligram doxepin tablet, fasted (N 15)
[6] = single 6 milligram doxepin tablet, fed (N 16)
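Note: healthy young adult men and women, dosed in the morning. Doxepin in plasma by validated HPLC-MS/MS (LLOQ 0.05 ng/mL), parameters by noncompartmental analysis on actual elapsed time after dosing.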

## CN(C)CCC=C1c2ccccc2COc2ccccc21 [doxepin]
Both fed and fasted states (six and five subjects, respectively)
  time postdose at which detectable plasma levels were first observed: 30 min
Both treatments (fed and fasted), lower limit of quantification 0.05 ng/mL
  time postdose up to which plasma doxepin concentrations remained quantifiable: up to 48 hours
[1]
  AUC0-∞, Effect of Food (% of fasted state): 141 % of fasted state
  Cmax, Effect of Food (% of fasted state): 115 % of fasted state
Median Tmax, single 6 milligram dose
  Tmax, Effect of Food (% of fasted state): 200 % of fasted state
[2]
  AUC0-Tlast, arithmetic mean: 12.6 ng·h/mL
  AUC0-∞, arithmetic mean: 14.1 ng·h/mL
  t1/2, arithmetic mean: 14.4 h
  λz, arithmetic mean: 0.0623 h⁻¹
[3]
  Cmax, arithmetic mean: 0.951 ng/mL
  Tmax, median: 6.0 h
  λz, arithmetic mean: 0.0445 h⁻¹
[4]
  AUC0-Tlast, Pairwise Comparison Ratio Fed/Fasted: 145.6%
  AUC0-∞, Pairwise Comparison Ratio Fed/Fasted: 141.3%
  Cmax, Pairwise Comparison Ratio Fed/Fasted: 114.6%
Single 6 milligram dose
  increase in AUC0-Tlast under fed conditions compared to fasted conditions: 46%
  mean CL/F lower in the fed state compared to the fasted state: 43%
  mean Vd/F lower in the fed state compared to the fasted state: 14%
  time postdose by which all subjects had detectable concentrations: ≤ 90 min
Single 6 milligram dose, fasted state (Treatment A)
  time postdose at which mean plasma concentrations reach Cmax: 3.0 h
Single 6 milligram dose, fed state (Treatment B)
  time postdose at which mean plasma concentrations reach Cmax: 6.0 h
[5]
  AUC0-Tlast, Geometric LS Mean: 9.194 ng·h/mL
  AUC0-∞, Geometric LS Mean: 10.72 ng·h/mL
  Cmax, Geometric LS Mean: 0.717 ng/mL
Single 6 milligram doxepin tablet, fasted (N = 15)
  CL/F, arithmetic mean: 837 L/h
[6]
  AUC0-Tlast, Geometric LS Mean: 13.39 ng·h/mL
  AUC0-∞, Geometric LS Mean: 15.14 ng·h/mL
  Cmax, Geometric LS Mean: 0.822 ng/mL
Single 6 milligram doxepin tablet, fed (N = 16)
  CL/F, arithmetic mean: 477 L/h
clinical
  Cmax: 0.854 ng/mL
  Tmax: 3 h
